Results from the kinase profiling compilation of Christmann-Franck et al. (2016).

Tests used:
Test in all cases: KINOMEscan competition binding
Settings in all cases: compound 10.0 µM
[1] = target: STK35 (human) (UniProt Q8TDR2)
[2] = target: CDK17 (human) (UniProt Q00537)
[3] = target: CSNK2A1 (human) (UniProt P68400)
[4] = target: CHEK2 (human) (UniProt O96017)
[5] = target: EPHA7 (human) (UniProt Q15375)
[6] = target: STK3 (human) (UniProt Q13188)
[7] = target: MST4 (human) (UniProt Q9P289)
[8] = target: CDKL2 (human) (UniProt Q92772)
[9] = target: TNNI3K (human) (UniProt Q59H18)
[10] = target: ZAP70 (human) (UniProt P43403)
[11] = target: EPHA6 (human) (UniProt Q9UF33)
[12] = target: RPS6KA5 KD2 (human) (UniProt O75582)
[13] = target: MAPK4 (human) (UniProt P31152)
[14] = test system: FLT3 (human), P36888 [N841I]
[15] = target: JAK1 JH1 catalytic (human) (UniProt P23458)
[16] = target: ACVR2A (human) (UniProt P27037)
[17] = target: RIPK1 (human) (UniProt Q13546)
[18] = target: TNK1 (human) (UniProt Q13470)
[19] = target: TYRO3 (human) (UniProt Q06418)
[20] = test system: EIF2AK4 KD2 (human), Q9P2K8 [S808G]
[21] = target: PIM1 (human) (UniProt P11309)
[22] = target: PRKCD (human) (UniProt Q05655)
[23] = target: BMPR1A (human) (UniProt P36894)
[24] = target: DMPK (human) (UniProt Q09013)
[25] = target: RPS6KA2 KD1 (human) (UniProt Q15349)
[26] = target: PRKG1 (human) (UniProt Q13976)
[27] = target: TEK (human) (UniProt Q02763)
[28] = target: TAOK1 (human) (UniProt Q7L7X3)
[29] = target: CSK (human) (UniProt P41240)
[30] = target: AKT3 (human) (UniProt Q9Y243)
[31] = target: MST1R (human) (UniProt Q04912)
[32] = target: MAPK10 (human) (UniProt P53779)
[33] = target: NUAK2 (human) (UniProt Q9H093)
[34] = target: PIM3 (human) (UniProt Q86V86)
[35] = target: FGFR2 (human) (UniProt P21802)
[36] = target: PAK1 (human) (UniProt Q13153)
[37] = target: JAK1 JH2 pseudokinase (human) (UniProt P23458)
[38] = target: TNK2 (human) (UniProt Q07912)
[39] = target: FER (human) (UniProt P16591)
[40] = target: NEK6 (human) (UniProt Q9HC98)
NEK6 (human), sequence (Q9HC98 whole entry, looked up): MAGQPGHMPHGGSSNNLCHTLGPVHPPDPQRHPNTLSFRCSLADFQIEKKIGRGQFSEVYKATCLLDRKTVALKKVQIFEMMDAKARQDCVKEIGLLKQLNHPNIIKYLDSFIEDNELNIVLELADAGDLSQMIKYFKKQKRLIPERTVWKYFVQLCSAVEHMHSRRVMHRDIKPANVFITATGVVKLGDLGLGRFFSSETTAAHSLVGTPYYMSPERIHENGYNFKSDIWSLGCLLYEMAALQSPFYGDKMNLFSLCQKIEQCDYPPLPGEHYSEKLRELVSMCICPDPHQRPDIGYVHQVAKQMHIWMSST

JAK1 JH2 pseudokinase (human), sequence (P23458 whole entry, looked up): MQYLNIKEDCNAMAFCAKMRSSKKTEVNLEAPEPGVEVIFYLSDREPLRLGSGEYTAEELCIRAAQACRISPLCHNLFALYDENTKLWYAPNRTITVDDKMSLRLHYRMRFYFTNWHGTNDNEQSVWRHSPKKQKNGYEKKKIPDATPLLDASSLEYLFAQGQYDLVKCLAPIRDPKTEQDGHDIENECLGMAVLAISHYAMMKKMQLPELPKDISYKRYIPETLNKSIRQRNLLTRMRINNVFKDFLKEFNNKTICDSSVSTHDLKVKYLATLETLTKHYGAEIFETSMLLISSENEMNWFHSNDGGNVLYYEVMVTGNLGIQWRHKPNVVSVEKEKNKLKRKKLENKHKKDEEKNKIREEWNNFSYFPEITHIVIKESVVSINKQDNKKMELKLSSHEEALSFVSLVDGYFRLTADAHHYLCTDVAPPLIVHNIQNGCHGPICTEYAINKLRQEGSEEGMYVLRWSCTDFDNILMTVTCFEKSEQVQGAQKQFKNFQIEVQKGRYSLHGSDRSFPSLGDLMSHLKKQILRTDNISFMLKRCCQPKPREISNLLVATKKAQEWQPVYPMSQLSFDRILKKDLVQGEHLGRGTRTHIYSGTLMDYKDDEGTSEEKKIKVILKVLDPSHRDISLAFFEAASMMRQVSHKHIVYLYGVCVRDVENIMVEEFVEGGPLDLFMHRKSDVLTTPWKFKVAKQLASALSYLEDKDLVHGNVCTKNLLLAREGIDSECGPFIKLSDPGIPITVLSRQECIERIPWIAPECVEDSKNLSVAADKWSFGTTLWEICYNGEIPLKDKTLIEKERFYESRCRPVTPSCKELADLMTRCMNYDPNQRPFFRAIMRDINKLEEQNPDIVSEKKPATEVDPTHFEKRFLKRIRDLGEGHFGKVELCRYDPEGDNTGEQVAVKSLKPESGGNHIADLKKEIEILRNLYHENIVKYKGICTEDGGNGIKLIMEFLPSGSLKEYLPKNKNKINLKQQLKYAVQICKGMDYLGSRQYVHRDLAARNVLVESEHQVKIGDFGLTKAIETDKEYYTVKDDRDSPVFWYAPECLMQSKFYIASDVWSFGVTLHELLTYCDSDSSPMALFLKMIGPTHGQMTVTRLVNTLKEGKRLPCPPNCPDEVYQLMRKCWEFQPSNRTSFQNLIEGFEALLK
JAK1 JH1 catalytic (human), sequence (P23458 whole entry, looked up): as above
CSK (human), sequence (P41240 whole entry, looked up): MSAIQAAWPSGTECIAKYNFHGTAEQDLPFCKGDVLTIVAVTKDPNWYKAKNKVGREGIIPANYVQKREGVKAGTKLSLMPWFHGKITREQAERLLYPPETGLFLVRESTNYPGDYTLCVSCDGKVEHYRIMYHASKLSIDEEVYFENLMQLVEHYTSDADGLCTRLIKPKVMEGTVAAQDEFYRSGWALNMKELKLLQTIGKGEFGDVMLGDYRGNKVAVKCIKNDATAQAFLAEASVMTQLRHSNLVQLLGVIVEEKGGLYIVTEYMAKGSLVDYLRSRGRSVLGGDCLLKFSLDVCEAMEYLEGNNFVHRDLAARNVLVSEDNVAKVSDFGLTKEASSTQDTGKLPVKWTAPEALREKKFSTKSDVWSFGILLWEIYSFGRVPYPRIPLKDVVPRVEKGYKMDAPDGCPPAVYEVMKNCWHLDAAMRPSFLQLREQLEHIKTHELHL
DMPK (human), sequence (Q09013 whole entry, looked up): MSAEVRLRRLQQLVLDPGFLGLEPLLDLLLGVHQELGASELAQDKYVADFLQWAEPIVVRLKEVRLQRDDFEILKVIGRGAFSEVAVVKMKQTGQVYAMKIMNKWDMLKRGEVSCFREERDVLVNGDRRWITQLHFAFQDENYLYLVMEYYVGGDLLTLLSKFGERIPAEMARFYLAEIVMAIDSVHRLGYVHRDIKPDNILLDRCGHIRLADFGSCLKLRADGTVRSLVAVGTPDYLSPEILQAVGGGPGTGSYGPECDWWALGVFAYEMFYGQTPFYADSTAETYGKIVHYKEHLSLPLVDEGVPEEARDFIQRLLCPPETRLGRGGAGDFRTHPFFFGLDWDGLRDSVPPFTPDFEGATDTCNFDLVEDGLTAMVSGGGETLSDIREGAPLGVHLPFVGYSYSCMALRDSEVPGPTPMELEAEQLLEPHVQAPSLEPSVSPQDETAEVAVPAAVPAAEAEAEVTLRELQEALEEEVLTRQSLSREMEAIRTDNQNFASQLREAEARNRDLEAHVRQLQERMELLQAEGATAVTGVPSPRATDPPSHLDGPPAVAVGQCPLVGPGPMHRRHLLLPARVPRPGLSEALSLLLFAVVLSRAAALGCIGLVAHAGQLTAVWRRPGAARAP
BMPR1A (human), sequence (P36894 whole entry, looked up): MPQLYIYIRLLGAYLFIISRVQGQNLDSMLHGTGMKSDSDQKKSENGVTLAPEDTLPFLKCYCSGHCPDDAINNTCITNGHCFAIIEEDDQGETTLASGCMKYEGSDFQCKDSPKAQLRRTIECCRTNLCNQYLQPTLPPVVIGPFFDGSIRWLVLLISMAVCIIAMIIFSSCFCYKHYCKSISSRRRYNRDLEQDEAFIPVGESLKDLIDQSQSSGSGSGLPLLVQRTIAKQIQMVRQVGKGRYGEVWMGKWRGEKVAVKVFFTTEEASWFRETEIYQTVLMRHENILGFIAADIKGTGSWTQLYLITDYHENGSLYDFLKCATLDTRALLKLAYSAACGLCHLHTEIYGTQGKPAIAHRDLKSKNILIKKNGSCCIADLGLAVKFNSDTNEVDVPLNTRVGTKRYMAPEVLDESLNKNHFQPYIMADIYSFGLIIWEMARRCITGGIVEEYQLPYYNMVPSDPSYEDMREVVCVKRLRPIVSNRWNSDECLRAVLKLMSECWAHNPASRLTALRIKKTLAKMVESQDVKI
STK35 (human), sequence (Q8TDR2 whole entry, looked up): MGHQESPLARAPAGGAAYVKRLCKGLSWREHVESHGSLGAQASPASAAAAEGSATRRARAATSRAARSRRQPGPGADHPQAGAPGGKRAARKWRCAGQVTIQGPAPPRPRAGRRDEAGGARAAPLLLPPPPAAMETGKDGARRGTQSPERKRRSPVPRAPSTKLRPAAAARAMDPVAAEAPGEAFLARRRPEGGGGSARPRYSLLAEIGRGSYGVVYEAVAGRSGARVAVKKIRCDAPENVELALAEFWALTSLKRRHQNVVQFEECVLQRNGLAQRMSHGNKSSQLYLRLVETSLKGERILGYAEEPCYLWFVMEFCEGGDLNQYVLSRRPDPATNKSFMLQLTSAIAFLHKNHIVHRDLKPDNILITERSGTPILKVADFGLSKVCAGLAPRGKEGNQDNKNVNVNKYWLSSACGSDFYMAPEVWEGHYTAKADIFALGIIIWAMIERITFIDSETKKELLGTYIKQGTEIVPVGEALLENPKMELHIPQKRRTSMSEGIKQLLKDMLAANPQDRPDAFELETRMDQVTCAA
PIM1 (human), sequence (P11309 whole entry, looked up): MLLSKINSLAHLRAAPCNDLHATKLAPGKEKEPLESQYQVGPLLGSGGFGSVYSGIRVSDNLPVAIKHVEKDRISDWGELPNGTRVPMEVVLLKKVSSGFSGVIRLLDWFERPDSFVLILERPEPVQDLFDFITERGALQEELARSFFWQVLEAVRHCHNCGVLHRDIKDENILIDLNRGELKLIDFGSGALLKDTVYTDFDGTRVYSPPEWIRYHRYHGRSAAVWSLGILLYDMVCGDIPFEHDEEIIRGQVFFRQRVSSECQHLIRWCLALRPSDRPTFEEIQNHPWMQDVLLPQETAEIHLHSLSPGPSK
PRKCD (human), sequence (Q05655 whole entry, looked up): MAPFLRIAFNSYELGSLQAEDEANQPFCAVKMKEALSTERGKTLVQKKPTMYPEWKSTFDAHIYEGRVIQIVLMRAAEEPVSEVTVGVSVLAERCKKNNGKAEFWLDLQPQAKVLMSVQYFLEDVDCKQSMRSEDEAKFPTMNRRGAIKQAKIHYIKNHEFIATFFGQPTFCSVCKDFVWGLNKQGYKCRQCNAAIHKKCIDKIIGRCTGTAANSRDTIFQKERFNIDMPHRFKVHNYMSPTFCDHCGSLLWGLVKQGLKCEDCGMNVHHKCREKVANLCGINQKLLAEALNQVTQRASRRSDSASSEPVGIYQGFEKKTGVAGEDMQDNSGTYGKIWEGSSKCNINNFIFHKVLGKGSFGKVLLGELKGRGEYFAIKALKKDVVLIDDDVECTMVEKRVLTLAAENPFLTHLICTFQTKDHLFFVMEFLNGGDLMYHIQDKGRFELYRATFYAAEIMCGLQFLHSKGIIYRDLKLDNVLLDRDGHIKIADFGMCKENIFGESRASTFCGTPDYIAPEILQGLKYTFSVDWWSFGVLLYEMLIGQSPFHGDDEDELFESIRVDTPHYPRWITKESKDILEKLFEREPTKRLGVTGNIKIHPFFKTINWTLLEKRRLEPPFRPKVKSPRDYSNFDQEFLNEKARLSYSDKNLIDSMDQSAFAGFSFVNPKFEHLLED

Row | Structure (SMILES) | kinase still bound, per cent of control [1] [%] | kinase still bound, per cent of control [2] [%] | kinase still bound, per cent of control [3] [%] | kinase still bound, per cent of control [4] [%] | kinase still bound, per cent of control [5] [%] | kinase still bound, per cent of control [6] [%] | kinase still bound, per cent of control [7] [%] | kinase still bound, per cent of control [8] [%] | kinase still bound, per cent of control [9] [%] | kinase still bound, per cent of control [10] [%] | kinase still bound, per cent of control [11] [%] | kinase still bound, per cent of control [12] [%] | kinase still bound, per cent of control [13] [%] | kinase still bound, per cent of control [15] [%] | kinase still bound, per cent of control [16] [%] | kinase still bound, per cent of control [17] [%] | kinase still bound, per cent of control [18] [%] | kinase still bound, per cent of control [19] [%] | kinase still bound, per cent of control [20] [%] | kinase still bound, per cent of control [21] [%] | also measured
1 | COc1cc(C(=O)NC2CCN(C)CC2)ccc1Nc1ncc2c(n1)N(C1CCCC1)CCC(=O)N2C(C)C | 100 | 100 | 100 | 100 | 100 | 100 | 100 | 100 | 100 | 100 | 100 | 100 | 100 | 100 | 100 | 100 | 100 | 100 | 100 | 100 | kinase still bound, per cent of control [14]: 100%; kinase still bound, per cent of control [22]: 0%; kinase still bound, per cent of control [23]: 100%; kinase still bound, per cent of control [24]: 100%; kinase still bound, per cent of control [25]: 100%; kinase still bound, per cent of control [26]: 100%; kinase still bound, per cent of control [27]: 100%; kinase still bound, per cent of control [28]: 100%; kinase still bound, per cent of control [29]: 100%; kinase still bound, per cent of control [30]: 100%; kinase still bound, per cent of control [31]: 100%; kinase still bound, per cent of control [32]: 100%; kinase still bound, per cent of control [33]: 100%; kinase still bound, per cent of control [34]: 100%; kinase still bound, per cent of control [35]: 100%; kinase still bound, per cent of control [36]: 100%; kinase still bound, per cent of control [37]: 100%; kinase still bound, per cent of control [38]: 100%; kinase still bound, per cent of control [39]: 100%; kinase still bound, per cent of control [40]: 100%
2 | C=CC(=O)Nc1cccc(Nc2nc(N[C@H]3CC[C@H](N(C)C)CC3)nc3c2ncn3C(C)C)c1 | 80 | 100 | 54 | 60 | 100 | 57 | 16 | 100 | 62 | 77 | 73 | 95 | 100 | 88 | 97 | 100 | 100 | 100 | 59 | 92 | kinase still bound, per cent of control [14]: 0%; kinase still bound, per cent of control [22]: 83%; kinase still bound, per cent of control [23]: 100%; kinase still bound, per cent of control [24]: 8.8%; kinase still bound, per cent of control [25]: 4.4%; kinase still bound, per cent of control [26]: 100%; kinase still bound, per cent of control [27]: 95%; kinase still bound, per cent of control [28]: 35%; kinase still bound, per cent of control [29]: 90%; kinase still bound, per cent of control [30]: 91%; kinase still bound, per cent of control [31]: 100%; kinase still bound, per cent of control [32]: 100%; kinase still bound, per cent of control [33]: 45%; kinase still bound, per cent of control [34]: 75%; kinase still bound, per cent of control [35]: 62%; kinase still bound, per cent of control [36]: 78%; kinase still bound, per cent of control [37]: 76%; kinase still bound, per cent of control [38]: 46%; kinase still bound, per cent of control [39]: 74%; kinase still bound, per cent of control [40]: 90%
3 | CCCS(=O)(=O)Nc1ccc(F)c(C(=O)c2c[nH]c3ncc(-c4ccc(Cl)cc4)cc23)c1F | 100 | 86 | 100 | 100 | 100 | 1.9 | 100 | 49 | 65 | 90 | 100 | 100 | 100 | 28 | 100 | 63 | 100 | 100 | 0.55 | 95 | kinase still bound, per cent of control [22]: 100%; kinase still bound, per cent of control [23]: 34%; kinase still bound, per cent of control [24]: 67%; kinase still bound, per cent of control [25]: 39%; kinase still bound, per cent of control [26]: 100%; kinase still bound, per cent of control [27]: 62%; kinase still bound, per cent of control [28]: 72%; kinase still bound, per cent of control [29]: 7.4%; kinase still bound, per cent of control [30]: 100%; kinase still bound, per cent of control [31]: 100%; kinase still bound, per cent of control [32]: 91%; kinase still bound, per cent of control [33]: 98%; kinase still bound, per cent of control [34]: 100%; kinase still bound, per cent of control [35]: 64%; kinase still bound, per cent of control [36]: 95%; kinase still bound, per cent of control [37]: 100%; kinase still bound, per cent of control [38]: 6.9%; kinase still bound, per cent of control [39]: 54%; kinase still bound, per cent of control [40]: 100%
